A word on the inhibition: it is the percentage by which the read-out fell short of the control.

In the assay the target is T1, CCR-3 (Homo sapiens, UniProt P51677).
T1 sequence (P51677 1-355): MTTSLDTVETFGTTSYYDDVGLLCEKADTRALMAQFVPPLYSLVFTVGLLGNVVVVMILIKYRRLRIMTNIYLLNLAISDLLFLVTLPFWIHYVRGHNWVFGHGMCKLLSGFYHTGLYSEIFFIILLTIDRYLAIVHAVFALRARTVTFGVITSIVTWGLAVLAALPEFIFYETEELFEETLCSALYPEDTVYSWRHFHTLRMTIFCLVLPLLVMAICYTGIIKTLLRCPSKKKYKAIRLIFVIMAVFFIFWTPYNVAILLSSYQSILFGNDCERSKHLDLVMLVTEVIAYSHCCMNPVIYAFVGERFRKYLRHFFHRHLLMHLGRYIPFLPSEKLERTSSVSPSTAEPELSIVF
The assay can be described thus: Eotaxin-induced chemotaxis of CCR-3 transfectant cells (CCR3/U937). On the set-up: expressed in transfected cells; host or cells: U937. The settings on record: 10 µM test compound, eotaxin 1 x 10^-9 M, CCR3/U937 cells (Table 3a). It is filed as cell-based. The protocol:
The inhibitory activity of the compounds against eotaxin-induced chemotaxis was determined by measuring the inhibition of migration of CCR-3 transfectant cells (CCR3/U937), using a minor modification of the method described by Ohashi, H. et al., Int Arch Allergy Immunol. […] The chemotaxis assay was performed in a 24-well culture plate. Human eotaxin suspended in assay medium was added to the wells at 1 x 10^-9 M along with test compounds at various concentrations. For a positive control, eotaxin was added to the wells without a test compound, and for a negative control, neither eotaxin nor a test compound was added to the wells. Chemotaxicell (Kurabo Co., Ltd.) having 5 micrometers pore size were inserted into each well and 100 micro liters of CCR-3 transfectant cells suspension were added to the top chamber. The plates were incubated at 37 °C for 1 hour. After incubation, migrated cells in lower wells were diluted and counted by particle size distribution analyzer (CDP-500, Sysmex Co., Ltd.).

With `O=C(O)CCCN(CCCNC(=O)Nc1ccc(Br)cc1)Cc1ccc(C(F)(F)F)cc1` [Compound 71], the “Chemotaxis Assay 10 µM (inhibition %)” value came to 64%.
Turning to `O=C(O)CCCN(CCCNC(=O)Nc1ccc(Br)cc1)CCc1ccccc1` [Compound 72], the “Chemotaxis Assay 10 µM (inhibition %)” value turned out to be 68%.
The same measure, in the same setting: the figure for `COc1ccc(CCN(CCCNC(=O)Nc2ccc(Br)cc2)CCCC(=O)O)cc1OC` [Compound 73] is 44%; for `O=C(O)CCCN(CCCNC(=O)Nc1ccc(Br)cc1)CCc1c[nH]c2ccccc12` [Compound 74] it is 50%; for `O=C(O)CCCN(CCCNC(=O)Nc1ccc(Br)cc1)C(Cc1ccccc1)c1ccccc1` (stereo not shown) [Compound 75] it is 68%.
The same measure, in the same setting: the figure for `O=C(O)CCCN(CCCNC(=O)Nc1ccc(Br)cc1)CCC(c1ccccc1)c1ccccc1` [Compound 76] is 44%.
Still for that read-out and setting: in the case of `CC(c1ccccc1)N(CCCNC(=O)Nc1ccc(Br)cc1)CCCC(=O)O` (stereo not shown) [Compound 77] it was 76%.
As to `O=C(O)CCCN(CCCNC(=O)Nc1ccc(Br)cc1)CCc1ccc(Cl)cc1` [Compound 79], the “Chemotaxis Assay 10 µM (inhibition %)” value is reported as 78%.
The same measure, in the same setting: in the case of `O=C(O)CCCN(CCCNC(=O)Nc1ccccc1)CCc1ccc(Cl)cc1` [Compound 80] it was 65%; in that of `O=C(O)CCCN(CCCNC(=O)Nc1cccc(Cl)c1)C1CCCc2ccccc21` (stereo not shown) [Compound 82], 100%; in that of `Cc1cccc(NC(=O)NCCCN(CCCC(=O)O)C2CCCc3ccccc32)c1` (stereo not shown) [Compound 83], 100%.
As to `O=C(O)CCCN(CCCNC(=O)Nc1ccc(Cl)c(C(F)(F)F)c1)C1CCCc2ccccc21` (stereo not shown) [Compound 84], the “Chemotaxis Assay 10 µM (inhibition %)” value is recorded as 100%.
The same measure, in the same setting: the figure for `O=C(O)CCCN(CCCNC(=O)Nc1ccccc1-c1ccccc1)C1CCCc2ccccc21` (stereo not shown) [Compound 85] is 19%; for `COc1ccc(NC(=O)NCCCN(CCCC(=O)O)C2CCCc3ccccc32)c(OC)c1` (stereo not shown) [Compound 86] it is 37%; for `O=C(O)CCCN(CCCNC(=O)Nc1ccccc1)C1CCCc2ccccc21` (stereo not shown) [Compound 87] it is 97%.
Still for that read-out and setting: in the case of `COc1ccc(NC(=O)NCCCN(CCCC(=O)O)C2CCCc3ccccc32)cc1` (stereo not shown) [Compound 88] it was 100%.
Same read-out and setting: in the case of `O=C(O)CCCN(CCCNC(=O)Nc1ccc(Oc2ccccc2)cc1)C1CCCc2ccccc21` (stereo not shown) [Compound 89] it was 89%.
`O=C(O)CCCN(CCCNC(=O)Nc1cccc2ccccc12)C1CCCc2ccccc21` (stereo not shown) [Compound 90]: the “Chemotaxis Assay 10 µM (inhibition %)” value is 100%.
Take `O=C(O)CCCN(CCCNC(=O)Nc1ccc(Cl)cc1)C1CCCc2ccccc21` (stereo not shown) [Compound 171, 4-[[3-(4-Chlorophenylureido)propyl](1,2,3,4-tetrahydro-1-naphthyl)amino]butanoic acid]: where the note is “U-937”, at 10 µM the inhibition was 100%.
Turning to `COC(=O)CCCN(CCCNC(=O)Nc1ccc(Br)cc1)C1CCc2ccccc21` (stereo not shown) [Compound 172, Methyl 4-[[3-(4-bromophenylureido)propyl](1-indanyl)amino]burylate], the “Chemotaxis Assay 10 µM (inhibition %)” value is recorded as 100%.
On the same count and under the same terms, the figure for `O=C(O)CCCN(CCCNC(=O)Nc1ccc(Br)cc1)C1CCc2ccccc21` (stereo not shown) [Compound 173, 4-[[3-(4-Bromopbenylureido)propyl](1-indanyl)amino]butanoic acid] is 100%; for `COC(=O)CCCN(CCCNC(=O)Nc1ccc(Br)cc1)C1Cc2ccccc2C1` [Compound 174] it is 100%; for `O=C(O)CCCN(CCCNC(=O)Nc1ccc(Br)cc1)C1Cc2ccccc2C1` [Compound 175] it is 100%.
Same read-out and setting: in the case of `COC(=O)CCCN(CCCNC(=O)Nc1ccc(Br)cc1)C1CCc2ccccc21` (stereo not shown) [Compound 176] it was 75%; in that of `O=C(O)CCCN(CCCNC(=O)Nc1ccc(Br)cc1)C1CCc2ccccc21` (stereo not shown) [Compound 177], 89%.

The values are drawn from EP1200395B1, “UREA DERIVATIVES AS INHIBITORS OF CCR-3 RECEPTOR” (KIRIN BEER KABUSHIKI KAISHA, priority 1999, dated 2001).
